According to patent US12280023B2, “Fluorophenyl beta-hydroxyethylamines and their use in the treatment of hyperglycaemia” (ATROGI AB, priority 2017, dated 2025):
Structures can show the parent of a compound that is named as a salt.

Tests used:
[1] = test system: Intracellular cAMP levels; assay: Measurement of intracellular cAMP levels in differentiated L6 cells; assay type: cell-based; conditions: Rattus norvegicus, L6, 0.25 h, agonist final concentration 1×10^−5, 15 min, alpha screen cAMP kit, relative to isoproterenol, read-out: Biological example 2: intracellular cAMP activity compared to that of isoproterenol
Experimental: (§1) L6-myoblasts were grown in Dulbecco's Modified Eagle's Medium (DMEM) containing 4.5 g/l glucose supplemented with 10% fetal bovine serum, 2 mM L-Glutamine, 50 U/ml penicillin, 50 μg/ml streptomycin and 10 mM HEPES. Cells were plated at 1×10^5 cells per ml in 24-well plates. After reaching 90% confluence the cells were grown in medium containing 2% FBS for 7 days where upon cells differentiated into myotubes.
Differentiated cells were serum-starved over night and stimulated with agonist, final concentration 1×10^−5, for 15 min in stimulation buffer (HBSS supplemented with 1% BSA, 5 mM HEPES and 1 mM IBMX, pH 7.4). The medium was then aspirated and to end the reaction 100 μL of 95% EtOH was added to each well of a 24-well plate and cells were kept in −20° C. over night. The EtOH was let to evaporate and 500 μL of lysis buffer (1% BSA, 5 mM HEPES and 0.3% Tween-20, pH 7.4) was added to each well before put in −80° C. for 30 min and then kept in −20° C. Intracellular cAMP levels were detected using an alpha screen cAMP kit (6760635D from Perkin Elmer). The activity for each compound is compared to that of isoproterenol.

[2] = test system: L6-myotubes; assay: Glucose uptake (3H-2-deoxy-glucose) in differentiated L6-myotubes; assay type: cell-based; conditions: agonist final concentration 1×10^−5, 50 nM 3H-2-deoxy-glucose, relative to isoproterenol, read-out: Biological example 1: glucose uptake activity compared to that of isoproterenol
Experimental: as §1
Differentiated L6-myotubes were serum-starved over night in medium containing 0.5% fatty-acid free BSA and stimulated with agonist, final concentration 1×10^−5. After 1 h 40 min cells were washed with warm, glucose free medium or PBS and another portion of agonist was added to glucose free medium. After 20 min the cells were exposed to 50 nM ^3H-2-deoxy-glucose for another 10 min before washed in ice cold glucose free medium or PBS and lysed in 0.2 M NaOH for 1 h in 60° C.

Row | SMILES | Emax [1] [%] | Emax [2] [%]
1 | CC(C)(C)NC[C@H](O)c1ccc(F)c(O)c1 [Example 23, (R)-5-(2-(tert-Butylamino)-1-hydroxyethyl)-2-fluorophenol acetate] | 50 to 75 | > 75
2 | CCC[C@H](C)NC[C@H](O)c1ccc(F)cc1 [Example 11, (R)-1-(4-Fluorophenyl)-2-(((S)-pentan-2-yl)amino)ethan-1-ol] | < 25 | 25 to 50
3 | CCCCNCC(O)c1cc(F)cc(F)c1 (centres unmarked) [Example 1, 2-(Butylamino)-1-(3,5-difluorophenyl)ethan-1-ol] | < 25 | 50 to 75
4 | CCCCNC[C@H](O)c1ccc(F)c(O)c1 [Example 24, (R)-5-(2-(Butylamino)-1-hydroxyethyl)-2-fluorophenol acetate] | < 25 | > 75
5 | CCCCNC[C@H](O)c1cccc(F)c1 [Example 4, (R)-2-(Butylamino)-1-(3-fluorophenyl)ethan-1-ol] | < 25 | > 75
6 | CCCC(C)(C)NC[C@H](O)c1cccc(F)c1 [Example 14, (R)-1-(3-Fluorophenyl)-2-((2-methylpentan-2-yl)amino)ethan-1-ol] | < 25 | > 75
7 | CC(C)(C)NC[C@H](O)c1cccc(F)c1F [Example 15, (R)-2-(tert-Butylamino)-1-(2,3-difluorophenyl)ethan-1-ol] | 25 to 50 | > 75
8 | CC1(NC[C@H](O)c2cccc(F)c2)CCC1 [Example 21, (R)-1-(3-fluorophenyl)-2-((1-methylcyclobutyl)amino)ethan-1-ol] | 25 to 50 | > 75
9 | CC(C)(C)NC[C@H](O)c1cccc(O)c1F [Example 25, (R)-3-(2-(tert-Butylamino)-1-hydroxyethyl)-2-fluorophenol] | 50 to 75 | 50 to 75
10 | CCCCNCC(O)c1ccc(F)c(F)c1 (centres unmarked) [Example 2, 2-(Butylamino)-1-(3,4-difluorophenyl)ethan-1-ol] | < 25 | 50 to 75
11 | CCC[C@@H](C)NC[C@H](O)c1ccc(F)cc1 [Example 10, (R)-1-(4-Fluorophenyl)-2-(((R)-pentan-2-yl)amino)ethan-1-ol] | < 25 | 50 to 75
12 | CC(C)(C)NC[C@H](O)c1ccccc1F [Example 17, (R)-2-(tert-Butylamino)-1-(2-fluorophenyl)ethan-1-ol] | < 25 | 50 to 75
13 | CC(C)(C)NC[C@H](O)c1cccc(N)c1F [Example 27, (R)-1-(3-Amino-2-fluorophenyl)-2-(tert-butylamino)ethan-1-ol] | 25 to 50 | > 75
14 | O[C@@H](CNC1(C(F)(F)F)CC1)c1cccc(F)c1 [Example 30, (R)-1-(3-fluorophenyl)-2-O-(trifluoromethyl)cyclopropyl)amino)ethan-1-ol hydrochloride] | < 25 | 50 to 75
15 | CCCCNCC(O)c1ccc(F)c(NC(C)=O)c1F (centres unmarked) [Example 8, N-(3-(2-(Butylamino)-1-hydroxyethyl)-2,6-difluorophenyl)acetamide] | < 25 | 25 to 50
16 | CCCCNC[C@H](O)c1cccc(O)c1F [Example 26, (R)-3-(2-(Butylamino)-1-hydroxyethyl)-2-fluorophenol] | 25 to 50 | > 75

Row | SMILES | Emax [1] [%] | Emax [2] [%]
17 | CC(C)(C)CNC[C@H](O)c1cccc(F)c1 [Example 29, (R)-1-(3-Fluorophenyl)-2-(neopentylamino)ethan-1-ol hydrochloride] | < 25 | 25 to 50
18 | CCC[C@@H](C)NC[C@H](O)c1cccc(F)c1 [Example 12, (R)-1-(3-fluorophenyl)-2-(((R)-pentan-2-yl)amino)ethan-1-ol] | < 25 | > 75
19 | CCCCNC[C@H](O)c1cccc(F)c1F [Example 16, (R)-2-(Butylamino)-1-(2,3-difluorophenyl)ethan-1-ol] | < 25 | > 75
20 | CCCCNC[C@H](O)c1ccccc1F [Example 18, (R)-2-(Butylamino)-1-(2-fluorophenyl)ethan-1-ol] | < 25 | > 75
21 | CCC[C@H](C)NC[C@H](O)c1cccc(F)c1 [Example 13, (R)-1-(3-fluorophenyl)-2-(((S)-pentan-2-yl)amino)ethan-1-ol] | < 25 | 50 to 75
22 | CC(C)(C)NC[C@H](O)c1ccc(F)cc1O [Example 19, (R)-2-(2-(tert-Butylamino)-1-hydroxyethyl)-5-fluorophenol acetate] | < 25 | 50 to 75
23 | CCCCNCC(O)c1cc(F)c(N)c(F)c1 (centres unmarked) [Example 6, 1-(4-Amino-3,5-difluorophenyl)-2-(butylamino)ethan-1-ol] | > 75 | > 75
24 | CCCCNCC(O)c1ccc(F)c(N)c1F (centres unmarked) [Example 7, 1-(3-Amino-2,4-difluorophenyl)-2-(butylamino)ethan-1-ol] | < 25 | > 75
25 | CCCCNC[C@H](O)c1ccc(F)cc1 [Example 3, (R)-2-(Butylamino)-1-(4-fluorophenyl)ethan-1-ol] | < 25 | 25 to 50
26 | Cc1c(F)cccc1[C@@H](O)CNC(C)(C)C [Example 32, (R)-2-(tert-butylamino)-1-(3-fluoro-2-methylphenyl)ethan-1-ol] | < 25 | > 75
27 | CC(C)(C)NC[C@H](O)c1ccc(F)c(N)c1F [Example 31, (R)-1-(3-amino-2,4-difluorophenyl)-2-(tert-butylamino)ethan-1-ol hydrochloride] | < 25 | > 75
28 | CCCCNC[C@H](O)c1ccc(F)cc1O [Example 20, (R)-2-(2-(Butylamino)-1-hydroxyethyl)-5-fluorophenol acetate] | < 25 | > 75
29 | CCCCNC[C@H](O)c1cccc(N)c1F [Example 28, (R)-1-(3-Amino-2-fluorophenyl)-2-(butylamino)ethan-1-ol dihydrochloride] | < 25 | 50 to 75
30 | CC1(NC[C@H](O)c2cccc(F)c2)CC1 [Example 22, (R)-1-(3-fluorophenyl)-2-((1-methylcyclopropyl)amino)ethan-1-ol] | < 25 | > 75
31 | CC(C)(C)NC[C@H](O)c1cccc(F)c1 [Example 5, (R)-2-(tert-Butylamino)-1-(3-fluorophenyl)ethan-1-ol] | < 25 | > 75
